Source: the supplement of paper PMC10627819
Converted amounts (≈) assume the structure as drawn.

Columns and labels:
[1] = test system: S. aureus DSM 20231; test: fitness (endpoint OD595 vs no drug) (fraction); higher = more growth
Summary of the method: (§1)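 Volumes were 30 µl per well, or 55 µl for S. pneumoniae, in 384-well plates inoculated at OD595 0.01. Media were TSB, LB Lennox or CY at 37 °C, and OD595 was read every 30 min for 14 h with first-reading background subtraction. Fitness is the ratio of optical density at stationary-phase entry to the robust mean of no-drug controls. That ratio is capped at 1.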

[2] = test system: B. subtilis 168; test: as above
Summary of the method: as §1

[3] = test system: S. pneumoniae D39V; test: as above
Summary of the method: as §1

[4] = test system: S. aureus Newman; test: as above
Summary of the method: as §1

[5] = test system: S. aureus DSM 20231; test: Bliss interaction score (quartile over a dose matrix) (fitness difference); higher = more antagonism (negative = synergy)
Summary of the method: (§2)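 At entry into stationary phase, OD595 was recorded and divided by the robust mean of the no-drug wells on that plate, with any value above 1 set to 1. This gives the fitness measure used throughout. Single-drug fitness was inferred from combination data, and the Bliss score, observed minus product-expected fitness, is shown as quartiles across technical, biological and donor/recipient replicates.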

[6] = test system: B. subtilis 168; test: as above
Summary of the method: as §2

[7] = test system: S. pneumoniae D39V; test: as above
Summary of the method: as §2

[8] = test system: S. aureus Newman; test: as above
Summary of the method: as §2

[9] = test system: S. aureus DSM 20231
[10] = test system: B. subtilis 168
[11] = test system: S. pneumoniae D39V
[12] = test system: S. aureus Newman
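Wherever Bliss interaction score (quartile over a dose matrix) is given: first quartile when negative (synergy) and third quartile when positive (antagonism).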

CCN(CC)CCOC(=O)c1ccc(N)cc1 [Procaine] + CN[C@@H]1[C@H](O)[C@H](NC)[C@H]2O[C@@]3(O)C(=O)C[C@@H](C)O[C@H]3O[C@@H]2[C@H]1O [Spectinomycin]
fitness
Conditions	first compound 85.5 µg/mL	first compound 171 µg/mL	first compound 342 µg/mL
[1], partner 4 µg/mL	0.959	0.931	0.914
[1], partner 8 µg/mL	0.948	0.911	0.928
[1], partner 16 µg/mL	0.82	0.848	0.868
[2], partner 2 µg/mL	0.972	0.926	0.923
[2], partner 4 µg/mL	0.938	0.963	0.93
[2], partner 8 µg/mL	0.895	0.84	0.824
[3], partner 4 µg/mL	≥ 1	0.973	0.914
[3], partner 8 µg/mL	0.964	0.955	0.929
[4], partner 4 µg/mL	0.886	0.891	0.89
[4], partner 8 µg/mL	≥ 1	0.968	0.962
[4], partner 16 µg/mL	0.896	0.905	0.88

fitness, one replicate
Conditions	first compound 85.5 µg/mL	first compound 171 µg/mL	first compound 342 µg/mL
[1], partner 32 µg/mL	0.744	0.724	0.813
[1], partner 64 µg/mL	0.0918	0.0696	0.107
[3], partner 16 µg/mL	0.866	0.857	0.849
[4], partner 32 µg/mL	0.678	0.652	0.629
[4], partner 64 µg/mL	0.139	0.132	0.147

Conditions	Bliss interaction score
[5]	0.0496
[6]	-0.0468
[7]	0.0382
[8]	0.0891

CCN(CC)CCOC(=O)c1ccc(N)cc1 [Procaine] + COc1ccc(C[C@H](N)C(=O)N[C@H]2[C@@H](O)[C@H](n3cnc4c(N(C)C)ncnc43)O[C@@H]2CO)cc1 [Puromycin]
fitness
Conditions	first compound 85.5 µg/mL	first compound 171 µg/mL	first compound 342 µg/mL
[1], partner 0.39 µg/mL	0.996	≥ 1	0.916
[1], partner 0.78 µg/mL	≥ 1	≥ 1	≥ 1
[1], partner 1.56 µg/mL	0.994	≥ 1	≥ 1
[2], partner 0.39 µg/mL	0.931	0.964	0.899
[2], partner 0.78 µg/mL	0.935	0.913	0.896
[2], partner 1.56 µg/mL	0.934	0.967	0.958
[3], partner 1 µg/mL	0.974	0.951	0.958
[3], partner 2 µg/mL	0.948	0.966	0.955
[3], partner 4 µg/mL	0.789	0.831	0.814
[4], partner 0.39 µg/mL	≥ 1	≥ 1	≥ 1
[4], partner 0.78 µg/mL	≥ 1	0.977	0.936
[4], partner 1.56 µg/mL	≥ 1	≥ 1	≥ 1

fitness, [1], one replicate
Conditions	first compound 85.5 µg/mL	first compound 171 µg/mL	first compound 342 µg/mL
partner 3.12 µg/mL	0.86	0.879	≥ 1
partner 6.24 µg/mL	0.592	0.646	0.618

Conditions	Bliss interaction score
[5]	0.047
[6]	0.0785
[7]	0.0736
[8]	0.063

CCN(CC)CCOC(=O)c1ccc(N)cc1 [Procaine] + Cc1cc(NS(=O)(=O)c2ccc(N)cc2)no1 [Sulfamethoxazol]
fitness
Conditions	[1]	[2]	[3]	[4]
first compound 85.5 µg/mL, partner 1 µg/mL	0.976	0.909	0.991	0.999
first compound 85.5 µg/mL, partner 2 µg/mL	0.979	0.88	0.982	0.984
first compound 85.5 µg/mL, partner 4 µg/mL	0.999	0.905	0.924	0.959
first compound 171 µg/mL, partner 1 µg/mL	0.992	0.865	0.979	0.99
first compound 171 µg/mL, partner 2 µg/mL	≥ 1	0.836	≥ 1	0.981
first compound 171 µg/mL, partner 4 µg/mL	≥ 1	0.936	0.923	0.937
first compound 342 µg/mL, partner 1 µg/mL	0.944	0.88	0.979	–
first compound 342 µg/mL, partner 2 µg/mL	≥ 1	0.78	0.974	–
first compound 342 µg/mL, partner 4 µg/mL	≥ 1	0.918	0.908	–

fitness, one replicate
Conditions	first compound 85.5 µg/mL	first compound 171 µg/mL	first compound 342 µg/mL
[2], partner 0.5 µg/mL	0.971	0.908	0.963
[4], partner 8 µg/mL	0.88	0.892	0.934

Conditions	Bliss interaction score
[5]	0.0626
[6]	-0.0492
[7]	0.0407
[8]	0.0323

Cn1nnc(-c2ccc(-c3ccc(N4C[C@H](CO)OC4=O)cc3F)cn2)n1 [Tedizolid]
fitness
Conditions	0.0312 µg/mL	0.0625 µg/mL	0.125 µg/mL	0.25 µg/mL	0.5 µg/mL
[1]	–	0.923	0.809	0.229	–
[2]	0.943	0.901	0.643	–	–
[3]	–	–	0.719	0.416	0.168
[4]	–	0.936	0.859	0.434	–

Conditions	MIC [µg/mL]
[9]	0.3 (≈ 0.81 µM)
[10]	0.5 (≈ 1.35 µM)
[11]	0.125 (≈ 0.338 µM)
[12]	0.3 (≈ 0.81 µM)
